# Results taken from patent publication US11155821B2, “Compositions and methods for tagging ribonucleic acids” (The Regents of the University of Colorado, a body corporate, priority 2018, dated 2021).
# Tests used:
# [1] = test system: SM-KDM5B translation reporter tagged with 12 copies of Riboglow; assay: Translation assay, live U2-OS cells; format: cell-based
# Procedure: U2-OS cells seeded on home-made imaging dishes as described above were bead loaded with a mix of 1 μg plasmid DNA encoding for the SM-KDM5B translation reporter, 3 μL of a 5 μM stock of the Cbl-fluorophore probe Cbl-4xGly-ATTO 590 and 1 μL of Alexa488-labeled Fab to bind N-terminal FLAG tags in the reporter. After 6-8 hours, cells were washed 3 times with PBS, and medium was replaced with FluoroBrite medium (Gibco). Imaging was performed under HILO conditions [reference 49] at 37° C. and 5% CO2 using an Andor Ixon Ultra DU897U-C50 EMCCD camera. When indicated, puromycin was added during the image acquisition at a final concentration of 50 μg/mL.
# [2] = test system: RNA AT,MUT (four point mutations in the Cbl-binding site); assay: In vitro fluorescence turn-on, plate reader, aptamer AT,MUT; format: biochemical; settings: probe 0.25 or 0.5 μM, RNA at least 5 μM
# Procedure: (§1) The concentration of Cbl-fluorophore probes, free fluorophores and free Cbl was determined using extinction coefficients listed in Table 1B. In vitro experiments were conducted in RNA buffer (100 mM KCl, 10 mM NaCl, 1 mM MgCl2, 50 mM HEPES, pH 8.0). For the Cbl-fluorophore probes, the extinction coefficient of the fluorophores was used to determine the concentration. […] The fluorescence intensity of each probe was measured in the presence or absence of RNA in RNA buffer as technical triplicates in a Tecan Safire-II fluorescence plate. […] Samples were incubated for at least 20 minutes (min) at room temperature in the dark to allow for Cbl-binding of the RNA prior to data collection. The excitation wavelength for each probe is listed in Table 1B and the emission spectrum was collected in 1 nm increments for the range listed in Table 1B. Each emission spectrum was buffer subtracted, integrated and normalized to the signal of the free fluorophore at the same concentration. Resulting % fluorescence measurements were reproducible for measurements on different days.
# RNA AT = assay: In vitro fluorescence turn-on, plate reader, aptamer AT; format: biochemical; settings: probe 0.25 or 0.5 μM, RNA at least 5 μM
# Procedure: as §1
# [3] = molecular target: Cbl riboswitch RNA variant D; assay: Isothermal titration calorimetry (ITC), aptamer D; format: binding; settings: ITC at 25° C., RNA buffer; mean of 3 independent experiments +/- STDEV
# Procedure: (§2) ITC experiments were performed using protocols previously established and described [reference 30, 31]. Briefly, the RNA was dialyzed overnight at 4° C. into RNA buffer (100 mM KCl, 10 mM NaCl, 1 mM MgCl2, 50 mM HEPES, pH 8.0) using 6-8000 Dalton molecular weight cutoff dialysis tubing (Spectra/Por). The dialysis buffer was used to dissolve Cbl and Cbl-5xPEG-ATTO590, and to dilute RNA To the desired concentration. Titrations were performed at 25° C. using a MicroCal ITC 200 microcalorimeter (GE Healthcare) and data were fit using the Origin software suite as previously described [reference 61].
# [4] = molecular target: truncated Cbl riboswitch RNA variant AT; assay: Isothermal titration calorimetry (ITC), aptamer AT; format: binding; settings: ITC at 25° C., RNA buffer; mean of 3 independent experiments +/- STDEV
# Procedure: as §2
# [5] = molecular target: Cbl riboswitch RNA variant A (wild type env8); assay: Isothermal titration calorimetry (ITC), aptamer A; format: binding; settings: ITC at 25° C., RNA buffer; mean of 3 independent experiments +/- STDEV
# Procedure: as §2
# ACTB-(2xdBroccoli) mRNA = assay: Stress granule (SG) assay, live U2-OS Halo-G3BP1 cells, Broccoli tag; format: cell-based, Homo sapiens; settings: arsenite
# Procedure: U2-OS cells stably producing GFP-G3BP1 or genomically producing Halo-G3BP1 were seeded at 0.25×10^6 cells in imaging dishes. One day after seeding, cells were chemically transfected with typically 2-μg plasmid DNA (1 μg of the ACTB plasmid fused with an RNA tag of interest mixed with 1 μg of the transfection marker pNLS-TagBFP (in pcDNA)) using the TransIT transfection system following manufacturer recommendations (Mirus). On the next day, cells were stained and bead loaded with the Cbl-fluorophore probe as described above. The media that was added after bead loading contained 0.5 mM sodium arsenite and cells were incubated at 37° C./5% CO 2 for 30-45 min to induce stress granules. Cells were rinsed once in PBS and Fluorobrite media (Gibco), supplemented with 0.5 mM sodium arsenite, was added for live cell imaging. For correlative live/fixed imaging where cells were first imaged live, followed by fixation and FISH/immunofluorescence imaging of the same cells, the following modifications were made to the protocol above. Instead of home-made imaging dishes, gridded imaging dishes (MatTek) were used. Dishes were coated with 1 μg/mL fibronectin (Sigma) for 4 hours and fibronectin was rinsed once with full media before cells were seeded. Because plasmid ACTB-(AT) 4x was used, a higher concentration of Cbl-5xPEG-ATTO590 was bead loaded (3 μL of 50 μM probe).
# For live imaging of SGs tagged with 2xdBroccoli in U2-OS cells, the pinhole was 67.7 μm and the laser settings were as follows. For the DAPI channel, the laser was set at 5.0 (HV=110), for the GFP channel the laser was set at 1.0 (HV=110), for the TRITC channel the laser was set at 1.0 (HV=40). For live imaging of SGs tagged with MS2 stem-loop repeats in U2-OS cells, the pinhole was 67.7 μm and the laser settings were as follows. For the DAPI channel, the laser was set at 5.0 (HV=110), for the GFP channel the laser was adjusted for optimal contrast without detector saturation (approximately 1.0-2.5) (HV approximately 60-100), for the TRITC channel the laser was set at 0.9 (HV=40).
# Broccoli = assay: Photobleaching of RNA/probe complexes, constant illumination, Broccoli; format: physicochemical; settings: bound to Broccoli, within a second
# Procedure: For photobleaching experiments, indicated probes and RNA (Table 10) were mixed before about 3 to 4× of microscope immersion oil (Olympus immersion oil type-F) was added and the solution was emulsified to generate droplets. Samples were prepared in RNA buffer for Cbl-fluorophore samples (100 mM KCl, 10 mM NaCl, 1 mM MgCl2, 50 mM HEPES, pH 8.0) and in Broccoli buffer (40 mM HEPES pH 7.4, 100 mM KCl, 1 mM MgCl2) for the DFHBI-1T/Broccoli sample. The droplets were sandwiched between a glass slide and a coverslip. The sample was placed on the sample stage of a Nikon Ti-E HCA widefield fluorescence microscope with the coverslip facing a 20× objective lens. Photostability was assessed in part by fixing the excitation rate, i.e. the number of absorbed excitation photons were the same for Cbl-fluorophore/RNA samples and the DFHBI-1T/Broccoli sample. The high irradiance for the DFHBI-1T Broccoli sample is a result of its low extinction coefficient. Images were acquired every 50 ms for DFHBI-1T/Broccoli and every 250 ms for others for 3 seconds, then every second for 47 seconds or longer, and the exposure time of each image was 15 ms for DFHBI-1T/Broccoli and 40 ms for others. A total of 6 to 15 droplets were analyzed for each sample.
compound,measurement,setting,value
COc1ccc(C[C@H](N)C(=O)N[C@H]2[C@@H](O)[C@H](n3cnc4c(N(C)C)ncnc43)O[C@@H]2CO)cc1 [Puromycin],protein signal at translation sites,[1]; Puromycin added to cells with co-moving translation spots,rapid disappearance of the protein signal
same,mRNA spots colocalized with protein signal,"[1]; after Puromycin treatment, 50 μg/mL",30±12%
C/C1=C2/[N-][C@H]([C@H](CC(N)=O)[C@@]2(C)CCC(=O)NC[C@@H](C)OP(=O)([O-])O[C@H]2[C@@H](O)[C@@H](n3cnc4cc(C)c(C)cc43)O[C@@H]2Cn2cc(CNC(=O)c3ccc4c(c3)C3(OC4=O)c4ccc(O)cc4Oc4cc(O)ccc43)nn2)[C@]2(C)N=C(/C(C)=C3N=C(/C=C4N=C1[C@@H](CCC(N)=O)C\4(C)C)[C@@H](CCC(N)=O)[C@]\3(C)CC(N)=O)[C@@H](CCC(N)=O)[C@]2(C)CC(N)=O.[C-]#N.[Co+3] [Cbl-FAM],Fold fluorescence turn-on,[2],0.5x
same,Fold fluorescence turn-on,RNA AT,2.5x
"C/C1=C2/N[C@H]([C@H](CC(N)=O)[C@@]2(C)CCC(=O)NC[C@@H](C)OP(=O)(O)O[C@H]2[C@@H](O)[C@@H](n3cnc4cc(C)c(C)cc43)O[C@@H]2CO)[C@]2(C)N=C(/C(C)=C3N=C(/C=C4N=C1[C@@H](CCC(N)=O)C\4(C)C)[C@@H](CCC(N)=O)[C@]\3(C)CC(N)=O)[C@@H](CCC(N)=O)[C@]2(C)CC(N)=O.[Co] [Cbl, cobalamin]",Kd,[3],0.0022 ± 0.0016 µM
same,Kd,[4],0.29 µM
same,Kd,[5],0.037 ± 0.001 µM
CC1=N/C(=C\c2cc(F)c(O)c(F)c2)C(=O)N1CC(F)(F)F [DFHBI-1T],cells with Halo-G3BP1 labeled SGs where no corresponding SGs in the green Broccoli channel were detectable,ACTB-(2xdBroccoli) mRNA,90%
same,total SGs detected in the green Broccoli channel,ACTB-(2xdBroccoli) mRNA,4%
same,transfected cells in which at least one SG was detected in the green channel,ACTB-(2xdBroccoli) mRNA,10%
same,fluorescence remaining after photobleaching,Broccoli,< 20%
